# Results reported in patent US20240115547A1, “PSYCHOTROPIC AGENTS AND USES THEREOF” (LB PHARMACEUTICALS INC., priority 2021, published 2024).
# Tested on: Dopamine (e.g., D2/D3)
# Test: Dopamine RO % by raclopride PET after LB-102, various dosage regimens (Example 3)
# Type: in vivo, human
# Conditions: for Dopamine RO % (Caudate + Putamen): group mean
# Description: Healthy subjects were dosed orally with LB102 of 50 mg QD (n=4), 75 mg QD (n=4), 100 mg QD (n=4), 50 mg SS (n=2), or 100 mg SS (n=2). Subjects were, on average, 33 years old. Subjects dosed QD were given a single dose on day 1 after which PET scans were obtained; and subjects dosed SS, i.e., steady state, were dosed once a day for 4 days and PET scans were obtained after dosing on Day 4.
# Dynamic […] raclopride PET scans were obtained 0 h, 2.5 h, 7.5 h, and 23.5 h after LB-102 administration for the 50 mg and 100 mg QD treatment groups and after LB-102 administration of Day 4 for the 50 mg SS and 100 mg SS treatment groups; and 0 h, 3.5 h, 23.5 h, and 47.5 h after LB-102 administration for the 75 mg QD treatment group. Dopamine % RO were calculated using the STRM method (https://pubmed.ncbi.nlm.nih.gov/9345505/, which is incorporated herein by reference) and the combined RO % (average of caudate and putamen RO %) are shown as squares FIGS. 5A (50 mg QD), 5B (75 mg QD), 5C (100 mg QD); and FIGS. 6A (50 mg SS Day 4) and 6B (100 mg SS Day 4); and summarized in Table 3-A below.
# Dynamic ^11C raclopride PET scan results for calculation of dopamine RO % were measured in caudate, putamen, thalamus, and temporal lobe of each subject tested, and are summarized in Tables 3-B to 3-F below.
# [1] = 75 mg QD, Subject 3, 3.5 h after LB-102 admin.
# [2] = 75 mg QD, Subject 3, 23.5 h after LB-102 admin.
# [3] = 75 mg QD, Subject 3, 47.5 h after LB-102 admin.
# [4] = 75 mg QD, Subject 4, 3.5 h after LB-102 admin.
# [5] = 75 mg QD, Subject 4, 23.5 h after LB-102 admin.
# [6] = 75 mg QD, Subject 4, 47.5 h after LB-102 admin.
# [7] = 100 mg QD, Subject 1, 2.5 h after LB-102 admin.
# [8] = 100 mg QD, Subject 1, 7.5 h after LB-102 admin.
# [9] = 100 mg QD, Subject 1, 23.5 h after LB-102 admin.
# [10] = 100 mg QD, Subject 2, 2.5 h after LB-102 admin.
# [11] = 100 mg QD, Subject 2, 7.5 h after LB-102 admin.
# [12] = 100 mg QD, Subject 2, 23.5 h after LB-102 admin.
# [13] = 100 mg QD, Subject 3, 2.5 h after LB-102 admin.
# [14] = 100 mg QD, Subject 3, 7.5 h after LB-102 admin.
# [15] = 100 mg QD, Subject 3, 23.5 h after LB-102 admin.
# [16] = 100 mg QD, Subject 4, 2.5 h after LB-102 admin.
# [17] = 100 mg QD, Subject 4, 7.5 h after LB-102 admin.
# [18] = 100 mg QD, Subject 4, 23.5 h after LB-102 admin.
# [19] = 100 mg SS (Day 4), Subject 3, ~3 h after LB-102 admin.
# [20] = 100 mg SS (Day 4), Subject 3, ~8 h after LB-102 admin.
# [21] = 100 mg SS (Day 4), Subject 3, ~24 h after LB-102 admin.
# [22] = 100 mg SS (Day 4), Subject 4, ~3 h after LB-102 admin.
# [23] = 100 mg SS (Day 4), Subject 4, ~8 h after LB-102 admin.
# [24] = 100 mg SS (Day 4), Subject 4, ~24 h after LB-102 admin.
smiles,measurement,setting,value
CCN1CCCC1CNC(=O)c1cc(S(=O)(=O)CC)c(NC)cc1OC (stereo not shown) [LB-102],Dopamine RO % Putamen,[1],50%
same,Dopamine RO % Temporal lobe,[1],28%
same,Dopamine RO % Thalamus,[1],37%
same,Dopamine RO % Caudate,[2],69%
same,Dopamine RO % Putamen,[2],53%
same,Dopamine RO % Temporal lobe,[2],20%
same,Dopamine RO % Thalamus,[2],36%
same,Dopamine RO % Caudate,[3],52%
same,Dopamine RO % Putamen,[3],38%
same,Dopamine RO % Temporal lobe,[3],16%
same,Dopamine RO % Thalamus,[3],20%
same,Dopamine RO % Caudate,[4],5%
same,Dopamine RO % Putamen,[4],2%
same,Dopamine RO % Temporal lobe,[4],−2%
same,Dopamine RO % Thalamus,[4],5%
same,Dopamine RO % Caudate,[5],48%
same,Dopamine RO % Putamen,[5],37%
same,Dopamine RO % Temporal lobe,[5],27%
same,Dopamine RO % Thalamus,[5],21%
same,Dopamine RO % Caudate,[6],13%
same,Dopamine RO % Putamen,[6],12%
same,Dopamine RO % Temporal lobe,[6],−6%
same,Dopamine RO % Thalamus,[6],−25%
same,Dopamine RO % (Caudate + Putamen),"100 mg QD, 0 h after LB-102 administration",0%
same,Dopamine RO % (Caudate + Putamen),"100 mg QD, 3 h after LB-102 administration",41%
same,Dopamine RO % (Caudate + Putamen),"100 mg QD, 8 h after LB-102 administration",70%
same,Dopamine RO % (Caudate + Putamen),"100 mg QD, 24 h after LB-102 administration",69%
same,Dopamine RO % Caudate,[7],39%
same,Dopamine RO % Putamen,[7],32%
same,Dopamine RO % Temporal lobe,[7],18%
same,Dopamine RO % Thalamus,[7],28%
same,Dopamine RO % Caudate,[8],75%
same,Dopamine RO % Putamen,[8],67%
same,Dopamine RO % Temporal lobe,[8],24%
same,Dopamine RO % Thalamus,[8],40%
same,Dopamine RO % Caudate,[9],76%
same,Dopamine RO % Putamen,[9],68%
same,Dopamine RO % Temporal lobe,[9],13%
same,Dopamine RO % Thalamus,[9],26%
same,Dopamine RO % Caudate,[10],56%
same,Dopamine RO % Putamen,[10],52%
same,Dopamine RO % Temporal lobe,[10],17%
same,Dopamine RO % Thalamus,[10],42%
same,Dopamine RO % Caudate,[11],78%
same,Dopamine RO % Putamen,[11],75%
same,Dopamine RO % Temporal lobe,[11],17%
same,Dopamine RO % Thalamus,[11],49%
same,Dopamine RO % Caudate,[12],72%
same,Dopamine RO % Putamen,[12],66%
same,Dopamine RO % Temporal lobe,[12],22%
same,Dopamine RO % Thalamus,[12],43%
same,Dopamine RO % Caudate,[13],50%
same,Dopamine RO % Putamen,[13],46%
same,Dopamine RO % Temporal lobe,[13],20%
same,Dopamine RO % Thalamus,[13],34%
same,Dopamine RO % Caudate,[14],84%
same,Dopamine RO % Putamen,[14],77%
same,Dopamine RO % Temporal lobe,[14],24%
same,Dopamine RO % Thalamus,[14],46%
same,Dopamine RO % Caudate,[15],76%
same,Dopamine RO % Putamen,[15],69%
same,Dopamine RO % Temporal lobe,[15],22%
same,Dopamine RO % Thalamus,[15],39%
same,Dopamine RO % Caudate,[16],26%
same,Dopamine RO % Putamen,[16],25%
same,Dopamine RO % Temporal lobe,[16],10%
same,Dopamine RO % Thalamus,[16],31%
same,Dopamine RO % Caudate,[17],55%
same,Dopamine RO % Putamen,[17],49%
same,Dopamine RO % Temporal lobe,[17],15%
same,Dopamine RO % Thalamus,[17],49%
same,Dopamine RO % Caudate,[18],68%
same,Dopamine RO % Putamen,[18],56%
same,Dopamine RO % Temporal lobe,[18],15%
same,Dopamine RO % Thalamus,[18],39%
same,Dopamine RO % Caudate,[19],84%
same,Dopamine RO % Putamen,[19],80%
same,Dopamine RO % Temporal lobe,[19],19%
same,Dopamine RO % Thalamus,[19],50%
same,Dopamine RO % Caudate,[20],86%
same,Dopamine RO % Putamen,[20],83%
same,Dopamine RO % Temporal lobe,[20],18%
same,Dopamine RO % Thalamus,[20],51%
same,Dopamine RO % Caudate,[21],80%
same,Dopamine RO % Putamen,[21],73%
same,Dopamine RO % Temporal lobe,[21],23%
same,Dopamine RO % Thalamus,[21],48%
same,Dopamine RO % Caudate,[22],88%
same,Dopamine RO % Putamen,[22],79%
same,Dopamine RO % Temporal lobe,[22],32%
same,Dopamine RO % Thalamus,[22],78%
same,Dopamine RO % Caudate,[23],89%
same,Dopamine RO % Putamen,[23],80%
same,Dopamine RO % Temporal lobe,[23],25%
same,Dopamine RO % Thalamus,[23],80%
same,Dopamine RO % Caudate,[24],83%
same,Dopamine RO % Putamen,[24],72%
same,Dopamine RO % Temporal lobe,[24],31%
same,Dopamine RO % Thalamus,[24],69%
same,Dopamine RO % (Caudate + Putamen),"100 mg SS (once a day for 4 days), 3 h after Day 4 administration",88%
same,Dopamine RO % (Caudate + Putamen),"100 mg SS (once a day for 4 days), 8 h after Day 4 administration",82%
same,Dopamine RO % (Caudate + Putamen),"100 mg SS (once a day for 4 days), 24 h after Day 4 administration",76%
same,dopamine RO after plasma concentration dropped,after combined plasma concentration of LB-102 and amisulpride dropped sub 10 ng/mL,persisted significantly
